melting point [°C] | Compound
77 to 79 | CN(C)CCOc1ccc(CN2C(=O)C3(COc4cc5c(cc43)OCCO5)c3ccccc32)cc1 (centres undefined)
132 | Cn1c(C(F)(F)F)cc(=O)n(-c2cc(S)c(Cl)cc2F)c1=O
108 to 109 | Brc1ccc2c(c1)/C(=C\CN1CCCC1)c1ccccc1CO2
154 | Cc1cc(OCc2cnc(-c3ccc(OC(F)(F)F)cc3)nc2C(F)(F)F)ccc1OC(C)(C)C(=O)O
131 | CCCCCC1CCC(C2CCC(CC(O)CC)CC2)CC1 (centres undefined)
162 to 163 | COc1ccc(C#N)cc1/C=C/C(=O)N[C@H](CO)CN1CCC(C(=O)c2ccc(Cl)cc2)CC1
209 to 210 | O=C(O)C1Cc2c(c(Cl)cc3c(-c4cccc(F)c4)noc23)O1 (centres undefined)
38 to 41 | O=C=NC1(c2ccccc2)CCC2(CC1)OCCO2
214 to 216 | Oc1ccc(-n2nc3c(c2Cl)CCCC3)c(F)c1
181 | Cc1c(C(=O)Nc2ccc(N3CCC(NCCO)CC3)c(C#N)c2)cnn1-c1ccc(Cl)cc1
129 to 131 | CCCNC(=O)c1nc(C)ccc1C(=O)Nc1c(Cl)ccc(C)c1C#N
185 to 186 | O=C(C1CCCC1)N1C=C2c3ccccc3C3CC2(C1)c1ccccc13 (centres undefined)
95 to 96 | CN(C)C=Nc1c(Cl)cc(N=Cc2cccc(F)c2)cc1Cl
151 | Fc1ccc(C2NCCc3c2[nH]c2ccccc32)cc1F (centres undefined)
229 to 231 | CC(O)COc1cccc2oc(C(N)=O)cc(=O)c12 (centres undefined)
64 to 66 | CC(C)C(NC(=O)OC(C)(C)C)N1CC(NC(=O)Cc2ccccc2)C1=O (centres undefined)
257 to 263 | O=C(O)CN1C(=O)C(=Cc2ccc(OCc3ccc(C(F)(F)F)cc3)c(OCc3ccccc3)c2)SC1=S
283 to 284 | CNc1cccc(-c2ccc(C(=O)O)c(=O)[nH]2)c1
222 to 224 | CC(=O)Nc1ccc(S(=O)(=O)Nc2ccn(CC3CC3)c(=O)n2)cc1

melting point [°C] | Compound
132 to 133 | CSc1ccc(C(C#N)=NO)cc1
94 to 98 | Cc1[nH]c2ccc(OC(C)C(C)N3CCCC3)cc2c1C(=O)OCc1ccccc1 (centres undefined)
187 to 191 | CCCCC(=N)NC(=O)Nc1ccc([N+](=O)[O-])cc1
205 to 210 | CCOC(=O)C(C#N)=Cc1cc(O)c(O)c([N+](=O)[O-])c1
205 to 207 | Cc1cc(OCc2ccccc2)c2cc(C(=O)N(C)C)[nH]c2c1
266 to 271 | O=C1NC(=O)c2c1c(-c1ccc(CO)cc1)cc1[nH]c3ccc(O)cc3c21
220 | CC(C)C1CC(=O)Nc2nc(C#N)c3ncccc3c21 (centres undefined)
116 to 117 | CC(C)N(C(=O)n1oc(=O)[nH]c1=O)c1ccccc1
199 to 200 | CCOP(=O)(Cc1ccc(NC(=O)/C=C/c2cn(Cc3ccccc3)nc2-c2ccc(F)cc2)cc1)OCC
101 to 102 | CCN(CC)CCCCCCCCNc1nc(N)nc(-c2cc(Cl)ccc2Cl)n1
82 to 85 | CCCCCCCCCCC=Cc1cnn(C(C(=O)Nc2c(OC)cc(OC)cc2OC)c2ccccc2)c1 (centres undefined)
111 to 113 | c1ccc(Nc2ccncc2Oc2ccccc2)cc1
168 to 171 | CCCC#Cc1cc(Cl)cc2c1OC(C(F)(F)F)C(C(=O)O)=C2 (centres undefined)
71 to 73 | CCCCc1cc2cc(NC(C)=O)ccc2o1
135 to 136 | COc1ccc2ccc3ccc(C=O)c4ccc1c2c34
201 | CC(C)c1cc2c(-c3nc4cnccc4[nH]3)ccc(OC(F)F)c2o1
90 to 92 | CCC(C)CNC(=O)C(CC(O)C(CC(C)C)NC(=O)C(Cc1cscn1)NC(=O)C(Cc1cccc2ccccc12)NC(=O)OC(C)(C)C)C(C)(C)O (mixture of isomers)
64 to 65 | COc1c2c(c(OC)c(OC)c1OC)CC(CCCCCCCCN1C(=O)c3ccccc3C1=O)C2
209 to 211 | CCCCn1c(=O)n(CCC)c(=O)c2c(N)n[nH]c21

Compound | melting point [°C]
CCn1cc(C(=O)O)c(=O)c2cc(F)c(N3CCNCC3)c(OC)c21 | 169

Source: a melting point compilation (Tetko et al.; mined from patent text by program, amines drawn as free bases though some values may be those of a salt)
